Where two headings read alike, the source gives them in different places.
Biological target: T1, human GLP-1 receptor (Homo sapiens, UniProt P43220)
T1 construct: expressed in transfected cells; host or cells: HEK-293
Test: cAMP response of HEK-293 cells stably expressing human GLP-1 receptor (HTRF)
Format: cell-based
Settings: read-out: EC50 hGLP-1R
Experimental: For preparation, cells were split into T175 culture flasks and grown overnight to near confluency in medium (DMEM/10% FBS). Medium was then removed and cells washed with PBS lacking calcium and magnesium, followed by proteinase treatment with accutase (Sigma-Aldrich cat. no. A6964). Detached cells were washed and resuspended in assay buffer (1×HBSS; 20 mM HEPES, 0.1% BSA, 2 mM IBMX) and cellular density determined. They were then diluted to 400000 cells/ml and 25 μl-aliquots dispensed into the wells of 96-well plates. For measurement, 25 μl of test compound in assay buffer was added to the wells, followed by incubation for 30 minutes at room temperature. […] Potencies of peptidic compounds at the GLP-1, glucagon and GIP receptors were determined by exposing cells expressing human glucagon receptor (hGlucagon R), human GIP receptor (hGIP-R) or human GLP-1 receptor (hGLP-1R) to the listed compounds at increasing concentrations and measuring the formed cAMP as described in Methods.

T1 sequence (P43220 24-463): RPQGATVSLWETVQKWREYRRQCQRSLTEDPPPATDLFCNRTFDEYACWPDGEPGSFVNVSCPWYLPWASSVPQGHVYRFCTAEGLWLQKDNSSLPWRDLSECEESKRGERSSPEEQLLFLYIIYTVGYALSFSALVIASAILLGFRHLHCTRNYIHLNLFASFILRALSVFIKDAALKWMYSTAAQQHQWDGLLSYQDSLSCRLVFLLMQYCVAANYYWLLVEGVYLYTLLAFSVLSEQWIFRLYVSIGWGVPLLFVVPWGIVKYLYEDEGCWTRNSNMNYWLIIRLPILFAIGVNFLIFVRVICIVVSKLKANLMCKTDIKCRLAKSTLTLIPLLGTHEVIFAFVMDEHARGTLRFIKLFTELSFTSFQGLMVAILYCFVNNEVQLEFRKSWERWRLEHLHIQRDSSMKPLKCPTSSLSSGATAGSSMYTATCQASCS

SMILES	EC50 (Table 8, comparison Aib vs. Lys in position 27) [pM]	EC50 (Table 6) [pM]
CCCCCCCCCCCCCCCC(=O)N[C@@H](CCC(=O)N[C@@H](CCC(=O)NCCCC[C@H](NC(=O)[C@H](CCC(N)=O)NC(=O)[C@H](CCCCN)NC(=O)[C@H](CO)NC(=O)[C@H](CC(C)C)NC(=O)[C@H](CC(=O)O)NC(=O)[C@H](CO)NC(=O)[C@@H](NC(=O)[C@H](Cc1ccccc1)NC(=O)[C@@H](NC(=O)CNC(=O)[C@H](CCC(N)=O)NC(=O)[C@H](CO)NC(=O)[C@@H](N)Cc1c[nH]cn1)[C@@H](C)O)[C@@H](C)O)C(=O)N[C@@H](CC(=O)O)C(=O)N[C@@H](CCC(=O)O)C(=O)N[C@@H](CCC(=O)O)C(=O)N[C@@H](C)C(=O)N[C@@H](C)C(=O)N[C@@H](CCCNC(=N)N)C(=O)N[C@@H](CC(C)C)C(=O)N[C@@H](Cc1ccccc1)C(=O)N[C@H](C(=O)N[C@@H](CCC(=O)O)C(=O)N[C@@H](Cc1c[nH]c2ccccc12)C(=O)N[C@@H](CC(C)C)C(=O)N[C@@H](CCCCN)C(=O)N[C@@H](C)C(=O)NCC(=O)NCC(=O)N1CCC[C@H]1C(=O)N[C@@H](CO)C(=O)N[C@@H](CO)C(=O)NCC(=O)N[C@@H](C)C(=O)N1CCC[C@H]1C(=O)N1CCC[C@H]1C(=O)N1CCC[C@H]1C(=O)N[C@@H](CO)C(N)=O)[C@@H](C)CC)C(=O)O)C(=O)O [SEQ ID NO: 33, H-S-Q-G-T-F-T-S-D-L-S-K-Q-K(γE-γE-x53)-DEEAARLFIEWLKAGGPSSGAPPPS-NH2, reference compound]	1	
CCCCCCCCCCCCCCCCCC(=O)N[C@@H](CCC(=O)NCCOCCOCC(=O)NCCOCCOCC(=O)NCCCC[C@H](NC(=O)[C@H](CCC(N)=O)NC(=O)[C@H](CCCCN)NC(=O)[C@H](CO)NC(=O)[C@H](CC(C)C)NC(=O)[C@H](CC(=O)O)NC(=O)[C@H](CO)NC(=O)[C@@H](NC(=O)[C@H](Cc1ccccc1)NC(=O)[C@@H](NC(=O)CNC(=O)[C@H](CCC(N)=O)NC(=O)[C@@H](CO)NC(=O)[C@@H](N)Cc1c[nH]cn1)[C@@H](C)O)[C@@H](C)O)C(=O)N[C@@H](CC(=O)O)C(=O)N[C@@H](CCC(=O)O)C(=O)N[C@@H](CCC(=O)O)C(=O)N[C@@H](C)C(=O)N[C@@H](C)C(=O)N[C@@H](CCCNC(=N)N)C(=O)N[C@@H](CC(C)C)C(=O)N[C@@H](Cc1ccccc1)C(=O)N[C@H](C(=O)N[C@@H](CCC(=O)O)C(=O)N[C@@H](Cc1c[nH]c2ccccc12)C(=O)N[C@@H](CC(C)C)C(=O)NC(C)(C)C(=O)N[C@@H](C)C(=O)NCC(=O)NCC(=O)N1CCC[C@H]1C(=O)N[C@@H](CO)C(=O)N[C@@H](CO)C(=O)NCC(=O)N[C@@H](C)C(=O)N1CCC[C@H]1C(=O)N1CCC[C@H]1C(=O)N1CCC[C@H]1C(=O)N[C@@H](CO)C(N)=O)[C@@H](C)CC)C(=O)O [SEQ ID NO: 21, H-dSer-Q-G-T-F-T-S-D-L-S-K-Q-K(AEEAc-AEEAc- E-x70)-D-E-E-A-A-R-L-F-I-E-W-L-Aib-A-G-G-P-S-S-G-A-P-P-P-S-NH2]		1
CCCCCCCCCCCCCCCCCC(=O)NCCOCCOCC(=O)NCCOCCOCC(=O)NCCOCCOCC(=O)NCCCC[C@H](NC(=O)[C@H](CCC(N)=O)NC(=O)[C@H](CCCCN)NC(=O)[C@H](CO)NC(=O)[C@H](CC(C)C)NC(=O)[C@H](CC(=O)O)NC(=O)[C@H](CO)NC(=O)[C@@H](NC(=O)[C@H](Cc1ccccc1)NC(=O)[C@@H](NC(=O)CNC(=O)[C@H](CCC(N)=O)NC(=O)[C@@H](CO)NC(=O)[C@@H](N)Cc1c[nH]cn1)[C@@H](C)O)[C@@H](C)O)C(=O)N[C@@H](CC(=O)O)C(=O)N[C@@H](CCC(=O)O)C(=O)N[C@@H](CCC(=O)O)C(=O)N[C@@H](C)C(=O)N[C@@H](C)C(=O)N[C@@H](CCCNC(=N)N)C(=O)N[C@@H](CC(C)C)C(=O)N[C@@H](Cc1ccccc1)C(=O)N[C@H](C(=O)N[C@@H](CCC(=O)O)C(=O)N[C@@H](Cc1c[nH]c2ccccc12)C(=O)N[C@@H](CC(C)C)C(=O)NC(C)(C)C(=O)N[C@@H](C)C(=O)NCC(=O)NCC(=O)N1CCC[C@H]1C(=O)N[C@@H](CO)C(=O)N[C@@H](CO)C(=O)NCC(=O)N[C@@H](C)C(=O)N1CCC[C@H]1C(=O)N1CCC[C@H]1C(=O)N1CCC[C@H]1C(=O)N[C@@H](CO)C(N)=O)[C@@H](C)CC [SEQ ID NO: 22, H-dSer-Q-G-T-F-T-S-D-L-S-K-Q-K(AEEAc-AEEAc-AEEAc-x70)-D-E-E-A-A-R-L-F-I-E-W-L-Aib-A-G-G-P-S-S-G-A-P-P-P-S-NH2]		1.8
CCCCCCCCCCCCCCCCCC(=O)N[C@@H](CCC(=O)NCCCC[C@H](NC(=O)[C@H](CCC(N)=O)NC(=O)[C@H](CCCCN)NC(=O)[C@H](CO)NC(=O)[C@H](CC(C)C)NC(=O)[C@H](CC(=O)O)NC(=O)[C@H](CO)NC(=O)[C@@H](NC(=O)[C@H](Cc1ccccc1)NC(=O)[C@@H](NC(=O)CNC(=O)[C@H](Cc1c[nH]cn1)NC(=O)[C@@H](CO)NC(=O)[C@@H](N)Cc1c[nH]cn1)[C@@H](C)O)[C@@H](C)O)C(=O)N[C@@H](CC(=O)O)C(=O)N[C@@H](CCC(=O)O)C(=O)N[C@@H](CCC(=O)O)C(=O)N[C@@H](C)C(=O)N[C@@H](C)C(=O)N[C@@H](CCCNC(=N)N)C(=O)N[C@@H](CC(C)C)C(=O)N[C@@H](Cc1ccccc1)C(=O)N[C@H](C(=O)N[C@@H](CCC(=O)O)C(=O)N[C@@H](Cc1c[nH]c2ccccc12)C(=O)N[C@@H](CC(C)C)C(=O)NC(C)(C)C(=O)N[C@@H](C)C(=O)NCC(=O)NCC(=O)N1CCC[C@H]1C(=O)N[C@@H](CO)C(=O)N[C@@H](CO)C(=O)NCC(=O)N[C@@H](C)C(=O)N1CCC[C@H]1C(=O)N1CCC[C@H]1C(=O)N1CCC[C@H]1C(=O)N[C@@H](CO)C(N)=O)[C@@H](C)CC)C(=O)O [SEQ ID NO: 8, H-dSer-H-G-T-F-T-S-D-L-S-K-Q-K(γE-x70)-D-E-E-A-A-R-L-F-I-E-W-L-Aib-A-G-G-P-S-S-G-A-P-P-P-S-NH2]		1.8
CCCCCCCCCCCCCCCCCC(=O)N[C@@H](CCC(=O)NCCCC[C@H](NC(=O)[C@H](CCC(N)=O)NC(=O)[C@H](CCCCN)NC(=O)[C@H](CO)NC(=O)[C@H](CC(C)C)NC(=O)[C@H](CC(=O)O)NC(=O)[C@H](CO)NC(=O)[C@@H](NC(=O)[C@H](Cc1ccccc1)NC(=O)[C@@H](NC(=O)CNC(=O)[C@H](CCC(N)=O)NC(=O)[C@@H](CO)NC(=O)[C@@H](N)Cc1c[nH]cn1)[C@@H](C)O)[C@@H](C)O)C(=O)N[C@@H](CC(=O)O)C(=O)N[C@@H](CCC(=O)O)C(=O)N[C@@H](CCC(=O)O)C(=O)N[C@@H](C)C(=O)N[C@@H](C)C(=O)N[C@@H](CCCNC(=N)N)C(=O)N[C@@H](CC(C)C)C(=O)N[C@@H](Cc1ccccc1)C(=O)N[C@H](C(=O)N[C@@H](CCC(=O)O)C(=O)N[C@@H](Cc1c[nH]c2ccccc12)C(=O)N[C@@H](CC(C)C)C(=O)NC(C)(C)C(=O)N[C@@H](CCCCN)C(=O)N[C@H](C)C(=O)NCC(=O)N1CCC[C@H]1C(=O)N[C@@H](CO)C(=O)N[C@@H](CO)C(=O)NCC(=O)N[C@@H](C)C(=O)N1CCC[C@H]1C(=O)N1CCC[C@H]1C(=O)N1CCC[C@H]1C(=O)N[C@@H](CO)C(N)=O)[C@@H](C)CC)C(=O)O [SEQ ID NO: 25, H-dSer-Q-G-T-F-T-S-D-L-S-K-Q-K(γE-x70)-D-E-E-A-A-R-L-F-I-E-W-L-Aib-K-dAla-G-P-S-S-G-A-P-P-P-S-NH2]		2.1
CCCCCCCCCCCCCCCC(=O)N[C@@H](CCC(=O)N[C@@H](CCC(=O)NCCCC[C@H](NC(=O)[C@H](CCC(N)=O)NC(=O)[C@H](CCCCN)NC(=O)[C@H](CO)NC(=O)[C@H](CC(C)C)NC(=O)[C@H](CC(=O)O)NC(=O)[C@H](CO)NC(=O)[C@@H](NC(=O)[C@H](Cc1ccccc1)NC(=O)[C@@H](NC(=O)CNC(=O)[C@H](Cc1c[nH]cn1)NC(=O)[C@@H](CO)NC(=O)[C@@H](N)Cc1c[nH]cn1)[C@@H](C)O)[C@@H](C)O)C(=O)N[C@@H](CCC(=O)O)C(=O)N[C@@H](CCC(=O)O)C(=O)N[C@@H](CCC(=O)O)C(=O)N[C@@H](C)C(=O)N[C@@H](C)C(=O)N[C@@H](CCCNC(=N)N)C(=O)N[C@@H](CC(C)C)C(=O)N[C@@H](Cc1ccccc1)C(=O)N[C@H](C(=O)N[C@@H](CCC(=O)O)C(=O)N[C@@H](Cc1c[nH]c2ccccc12)C(=O)N[C@@H](CC(C)C)C(=O)NC(C)(C)C(=O)N[C@@H](CCCCN)C(=O)N[C@H](C)C(=O)NCC(=O)N1CCC[C@H]1C(=O)N[C@@H](CO)C(=O)N[C@@H](CO)C(=O)NCC(=O)N[C@@H](C)C(=O)N1CCC[C@H]1C(=O)N1CCC[C@H]1C(=O)N1CCC[C@H]1C(=O)N[C@@H](CO)C(N)=O)[C@@H](C)CC)C(=O)O)C(=O)O [SEQ ID NO: 27, H-dSer-H-G-T-F-T-S-D-L-S-K-Q-K(γE-γE-x53)-E-E-E-A-A-R-L-F-I-E-W-L-Aib-K-dAla-G-P-S-S-G-A-P-P-P-S-NH2]		2.1
CCCCCCCCCCCCCCCC(=O)N[C@@H](CCC(=O)N[C@@H](CCC(=O)NCCCC[C@H](NC(=O)[C@H](CCC(N)=O)NC(=O)[C@H](CCCCN)NC(=O)[C@H](CO)NC(=O)[C@H](CC(C)C)NC(=O)[C@H](CC(=O)O)NC(=O)[C@H](CO)NC(=O)[C@@H](NC(=O)[C@H](Cc1ccccc1)NC(=O)[C@@H](NC(=O)CNC(=O)[C@H](CCC(N)=O)NC(=O)[C@@H](CO)NC(=O)[C@@H](N)Cc1c[nH]cn1)[C@@H](C)O)[C@@H](C)O)C(=O)N[C@@H](CC(=O)O)C(=O)N[C@@H](CCC(=O)O)C(=O)N[C@@H](CCC(=O)O)C(=O)N[C@@H](C)C(=O)N[C@H](C(=O)N[C@@H](CCCNC(=N)N)C(=O)N[C@@H](CC(C)C)C(=O)N[C@@H](Cc1ccccc1)C(=O)N[C@H](C(=O)N[C@@H](CCC(=O)O)C(=O)N[C@@H](Cc1c[nH]c2ccccc12)C(=O)N[C@@H](CC(C)C)C(=O)NC(C)(C)C(=O)N[C@@H](C)C(=O)NCC(=O)NCC(=O)N1CCC[C@H]1C(=O)N[C@@H](CO)C(=O)N[C@@H](CO)C(=O)NCC(=O)N[C@@H](C)C(=O)N1CCC[C@H]1C(=O)N1CCC[C@H]1C(=O)N1CCC[C@H]1C(=O)N[C@@H](CO)C(N)=O)[C@@H](C)CC)C(C)C)C(=O)O)C(=O)O [SEQ ID NO: 17, H-dSer-Q-G-T-F-T-S-D-L-S-K-Q-K(γE-γE-x53)-D-E-E-A-V-R-L-F-I-E-W-L-Aib-A-G-G-P-S-S-G-A-P-P-P-S-NH2]		2.4
